Test results as given in US10059968B2, “Method for increasing lipid content in microorganisms and modified microorganisms therefrom” (Reliance […], priority 2014, dated 2018).

Tested on: Chlamydomonas reinhardtii CW-15 cells
Test: Nile Red Assay of lipid content in cells grown with cycloheximide
Format: cell-based
Method: FIG. 4A illustrates the graphical representation of fluorescence observed for Chlamydomonas reinhardtii CW-15 cells (Day 4) in Tris Acetate Phosphate medium grown with and without cycloheximide using Nile Red Assay;
Chemical inhibition of protein synthesis is carried out using cycloheximide. Chlamydomonas reinhardtii CW-15 (Chlamydomonas Resource Center, USA), is grown in the presence of varying amounts of cycloheximide (50 μM to 500 μM) to find out the effect of inhibition of protein synthesis on lipid content. […] FIGS. 4B and 4C depict the Nile Red stained cells of Chlamydomonas reinhardtii CW-15 cells grown without the protein inhibitor and in the presence of the protein inhibitor, respectively.

## C[C@@H]1C[C@@H]([C@H](O)CC2CC(=O)NC(=O)C2)C(=O)[C@@H](C)C1 [cycloheximide]
Chlamydomonas reinhardtii CW-15 grown with cycloheximide 50 μM to 500 μM vs without, Day 4, Tris Acetate Phosphate medium
  lipid content (Nile Red fluorescence): increase in lipid content
Cells grown in the presence of 50 μM of cycloheximide
  lipid content (Nile Red fluorescence): Highest lipid content
Higher amounts of cycloheximide (more than 200 μM)
  lipid content (Nile Red fluorescence): decrease in the lipid content
